{"source": "patent US20070155720A1", "about": "“Co-administration of dopamine-receptor binding compounds” (DarPharma, Inc., priority 2003, published 2007)", "key": {"[1]": {"test_system": "rats with scopolamine-induced deficits", "test": "Passive avoidance in rats, scopolamine-induced amnesia", "assay_type": "in vivo, rat", "conditions": "3.0 mg/kg ip", "method": "The protocol summarized below is one of many variants of the passive avoidance procedure using scopolamine-induced amnesia (for review see Rush, Behav Neural Biol 50:255-274, 1988). This procedure is commonly used to identify drugs that may be useful in treating cognitive deficits, particularly those observed in AD. The effects of the D\nTesting was conducted in standard 2-compartment rectangular passive avoidance chambers (San Diego Instruments, San Diego, Calif.) with black plexiglas sides and grid floors. The light compartment of the chambers were illuminated by a 20 W lamp located in this compartment; the dark side of the chambers will be shielded from light, except for light penetrating the opening connecting the two compartments of each chamber.\nOn training day, groups of 8 rats were injected with scopolamine (3.0 mg/kg, ip) or vehicle (1.0 ml/kg) 30 min prior to training. Scopolamine served as the dementing agent in this experiment. Ten min prior to training, each group of rats received a second injection of vehicle or a dose of DHX. At the end of the pretreatment interval, each rat was placed individually in the light compartment facing away from the opening between compartments. The latency for each rat to travel from the light to the dark compartment was measured up to a maximum of 300 sec; any animal not entering the dark compartment within 300 sec was discarded from the test group. Once the animal entered the dark compartment completely, a 1.0 milliampere, 3.0 sec scrambled shock was delivered to the entire grid floor. The animal was allowed to remain in the dark compartment during this 3.0 sec period or to escape to the light compartment. Each rat was then returned immediately to its home cage.\nTwenty-four hr after training, each rat was tested in the same apparatus for retention of the task (to remain passively in the light compartment). […] The latency for animals to enter the dark compartment on test day (step-through latency) was recorded up to a maximum of 600 sec. Each animal was used only once in a single experiment.\nA one-way analysis of variance (ANOVA) and Newman-Keuls post-hoc comparisons were used to identify significant deficits in passive avoidance responding produced by scopolamine and their reversal by DHX; a p value of less than 0.05 was used as the level of significance."}, "D1 receptor": {"target": "D1 receptor (Homo sapiens, UniProt P21728)", "sequence (P21728 whole entry)": "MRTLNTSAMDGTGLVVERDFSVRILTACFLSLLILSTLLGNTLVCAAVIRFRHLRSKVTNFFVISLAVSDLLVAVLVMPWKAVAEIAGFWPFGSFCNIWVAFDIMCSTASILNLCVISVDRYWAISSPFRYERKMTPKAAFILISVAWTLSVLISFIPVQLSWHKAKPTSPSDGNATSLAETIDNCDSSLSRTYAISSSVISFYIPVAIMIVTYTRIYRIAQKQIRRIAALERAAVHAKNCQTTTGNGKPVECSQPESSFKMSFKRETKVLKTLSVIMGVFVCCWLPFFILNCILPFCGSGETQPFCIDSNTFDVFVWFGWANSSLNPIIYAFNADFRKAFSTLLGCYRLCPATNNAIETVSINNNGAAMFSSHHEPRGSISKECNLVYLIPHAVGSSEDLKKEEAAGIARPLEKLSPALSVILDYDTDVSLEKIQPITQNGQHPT", "test": "Affinity and selectivity for the D1 receptor stated in the description, no method given", "assay_type": "binding", "conditions": "exemplary compounds, b98"}, "D4 receptor [2]": {"target": "T1, D4 receptor (Rattus norvegicus, UniProt P30729)", "T1 sequence (P30729 1-387)": "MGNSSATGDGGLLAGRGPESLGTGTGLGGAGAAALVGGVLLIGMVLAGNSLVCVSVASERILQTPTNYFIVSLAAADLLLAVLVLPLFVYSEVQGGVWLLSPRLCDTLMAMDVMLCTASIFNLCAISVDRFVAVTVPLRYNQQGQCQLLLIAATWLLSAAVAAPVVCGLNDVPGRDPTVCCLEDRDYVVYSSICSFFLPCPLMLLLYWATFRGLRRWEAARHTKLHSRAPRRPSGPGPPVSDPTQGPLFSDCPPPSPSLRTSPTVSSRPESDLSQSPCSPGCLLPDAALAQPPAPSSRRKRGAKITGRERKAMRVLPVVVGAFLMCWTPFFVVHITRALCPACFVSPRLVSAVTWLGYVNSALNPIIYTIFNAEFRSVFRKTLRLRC", "test": "Inhibition of forskolin-stimulated adenylate cyclase through D4 receptors in CHO cells", "assay_type": "cell-based"}, "D1 receptors": {"target": "T2, D1 receptors (Rattus norvegicus, UniProt P18901)", "T2 construct": "utilizing rat brain striatal homogenates having D1 and D2 receptors; from tissue; host or cells: rat brain striatum homogenate", "T2 sequence (P18901 whole entry)": "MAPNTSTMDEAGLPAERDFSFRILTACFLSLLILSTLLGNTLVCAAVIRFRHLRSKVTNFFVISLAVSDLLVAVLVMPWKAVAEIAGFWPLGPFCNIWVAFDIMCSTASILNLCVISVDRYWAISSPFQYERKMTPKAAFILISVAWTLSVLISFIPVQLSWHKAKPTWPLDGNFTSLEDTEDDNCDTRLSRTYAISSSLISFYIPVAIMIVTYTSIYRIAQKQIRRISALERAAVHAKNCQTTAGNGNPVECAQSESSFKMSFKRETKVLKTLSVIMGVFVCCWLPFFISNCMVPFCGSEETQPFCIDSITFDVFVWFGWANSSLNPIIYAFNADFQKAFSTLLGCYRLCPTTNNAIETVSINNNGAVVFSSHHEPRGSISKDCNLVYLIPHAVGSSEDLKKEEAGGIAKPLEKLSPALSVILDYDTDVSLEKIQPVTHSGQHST", "test": "Affinity for D1 receptors in rat brain striatal homogenates labeled with 3H-SCH 23390", "assay_type": "binding", "conditions": "for D1:D2 Selectivity: ratio of D2 to D1 affinity, rat striatal homogenates"}, "D2L receptors": {"target": "D2L receptors (Homo sapiens, UniProt P14416)", "sequence (P14416 whole entry)": "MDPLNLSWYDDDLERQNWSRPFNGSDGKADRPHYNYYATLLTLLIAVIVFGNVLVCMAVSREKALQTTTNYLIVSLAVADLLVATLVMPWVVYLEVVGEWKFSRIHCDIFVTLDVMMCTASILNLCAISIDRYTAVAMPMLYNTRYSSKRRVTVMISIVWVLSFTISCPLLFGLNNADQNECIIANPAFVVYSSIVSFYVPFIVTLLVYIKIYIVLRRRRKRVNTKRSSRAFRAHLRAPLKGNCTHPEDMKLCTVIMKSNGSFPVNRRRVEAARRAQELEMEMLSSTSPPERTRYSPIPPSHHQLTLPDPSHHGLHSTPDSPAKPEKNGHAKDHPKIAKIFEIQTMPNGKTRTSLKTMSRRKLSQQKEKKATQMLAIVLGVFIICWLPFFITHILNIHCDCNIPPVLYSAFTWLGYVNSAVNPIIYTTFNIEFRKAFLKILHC", "test": "Inhibition of forskolin-stimulated adenylate cyclase through D2L receptors in CHO cells", "assay_type": "cell-based", "conditions": "compared with quinpirole"}, "D4 receptor [3]": {"target": "T1, D4 receptor", "test": "Binding, cloned D4 receptor in CHO cells", "parameters": "expressed in transfected cells; host or cells: CHO cells", "conditions": "read-out: Cloned Receptors D4 CHO (rat)"}, "[4]": {"test": "Half-life and duration of functional activity", "assay_type": "in vivo"}, "[5]": {"test_system": "adenylate cyclase in rat brain striatum", "test": "Activation of adenylate cyclase in rat brain striatum", "assay_type": "biochemical", "conditions": "compared with dopamine"}, "monkeys": {"test_system": "monkeys", "conditions": "aged and reserpine-treated monkeys; cited from earlier work"}, "dopamine D1 receptor": {"target": "dopamine D1 receptor (Homo sapiens, UniProt P21728)", "sequence (P21728 whole entry)": "as the sequence (P21728 whole entry) above", "test": "D1 activity of hexahydrobenzo[a]phenanthridines, structure-activity statements", "conditions": "relative to dihydrexidine"}, "D2 receptor": {"target": "D2 receptor (Homo sapiens, UniProt P14416)", "sequence (P14416 whole entry)": "as the sequence (P14416 whole entry) above", "test": "D2 potency of substituted hexahydrobenzo[a]phenanthridines, structure-activity statement", "conditions": "relative to dihydrexidine"}}, "note": "Where a name gives a salt, the structure may show the parent alone. Read-outs that look alike come from different tables or passages of the source.", "data": [{"molecule": "CCCN1Cc2cccc3c2C(C1)c1ccc(O)c(O)c1O3", "note": "(centres unmarked) [Compound 16c, N-propyl-8,9-dihydroxy-1,2,3,11b-tetrahydrochromeno[4,3,2-de]isoquinoline]", "values": [{"measurement": "melting point", "value": "259 to 264 °C (dec.)"}]}, {"molecule": "CN1[C@@H]2C[C@@H](OC(=O)[C@H](CO)c3ccccc3)C[C@H]1[C@@H]1O[C@@H]12", "note": "[Scopolamine, reference compound]", "values": [{"measurement": "Acquisition of the passive avoidance task", "setting": "[1]", "value": "severe deficit"}]}, {"molecule": "Br.Oc1ccc2c(c1O)Oc1cccc3c1C2CNC3", "note": "(centres unmarked) [Compound 16a, 8,9-dihydroxy-1,2,3,11b-tetrahydrochromeno[4,3,2-de]isoquinoline hydrobromide]", "values": [{"measurement": "D1:D2 selective", "setting": "D1 receptor", "value": "equally high affinity for both receptor subtypes"}, {"measurement": "melting point", "value": "298 to 302 °C (dec.)"}]}, {"molecule": "NCCc1ccc(O)c(O)c1", "note": "[dopamine]", "values": [{"measurement": "EC50", "setting": "D4 receptor [2]; read-out: EC50 (nM) ± SEM, D4, inhibition of forskolin-stimulated AC, mean ± SEM, at least three experiments", "value": "1750 ± 682", "unit": "nM"}]}, {"molecule": "Cl.Oc1cc2c(cc1O)[C@@H]1c3cc(Cc4ccccc4)ccc3CN[C@H]1CC2", "note": "(relative stereo) [Compound 6e, Trans-2-benzyl-10,11-dihydroxy-5,6,6a,7,8,12b-hexahydrobenzo[a]phenanthridine hydrochloride]", "values": [{"measurement": "Ki", "setting": "D1 receptors; rat brain striatal homogenates, 3H-SCH 23390, read-out: D1 Affinity", "value": 290, "unit": "nM"}, {"measurement": "D1:D2 Selectivity", "setting": "D1 receptors", "value": 0.6}]}, {"molecule": "Oc1ccc2c(c1O)Cc1cccc3c1C2CNC3", "note": "(centres unmarked) [Compound 29, 8,9-Dihydroxy-2,3,7,11b-tetrahydro-1H-napth[1,2,3-de]isoquinoline]", "values": [{"measurement": "Agonist activity for inhibition of cAMP synthesis at D2L receptors", "setting": "D2L receptors", "value": "full agonist"}, {"measurement": "Agonist activity for inhibition of cAMP synthesis at D4 receptors", "setting": "D4 receptor [2]", "value": "full agonist"}, {"measurement": "EC50", "setting": "D4 receptor [2]; inhibition of forskolin-stimulated AC, mean ± SEM, at least three experiments, read-out: EC50 (nM) ± SEM, D4", "value": "60 ± 18", "unit": "nM"}, {"measurement": "Ki", "setting": "D4 receptor [3]", "value": 60, "unit": "nM"}, {"measurement": "Duration of functional activity", "setting": "[4]; in vivo", "value": "7 to 10", "unit": "h"}, {"measurement": "half-life", "setting": "[4]; serum, read-out: Serum half-life (converted)", "value": 3, "unit": "h"}, {"measurement": "Effectiveness in activating adenylate cyclase", "setting": "[5]", "value": "as effective as dopamine"}, {"measurement": "Effectiveness in activating adenylate cyclase when receptor reserve is reduced", "setting": "[5]; receptor reserve reduced", "value": "as effective as dopamine"}]}, {"molecule": "Cc1cccc2c1CN[C@H]1CCc3cc(O)c(O)cc3[C@H]21.Cl", "note": "(relative stereo)", "values": [{"measurement": "melting point", "value": "195 °C (dec.)"}]}, {"molecule": "Oc1cc2c(cc1O)C(c1ccccc1)CNCC2", "note": "(centres unmarked) [SKF 38393, reference compound]", "values": [{"measurement": "Spatial working memory", "setting": "monkeys", "value": "improved spatial working memory"}]}, {"molecule": "C=CCN1Cc2cccc3c2C(C1)c1ccc(O)c(O)c1O3", "note": "(centres unmarked) [Compound 16b, N-allyl-8,9-dihydroxy-1,2,3,11b-tetrahydrochromeno[4,3,2-de]isoquinoline]", "values": [{"measurement": "melting point", "value": "251 to 253 °C (dec.)"}]}, {"molecule": "Cc1ccc2c(c1)CN[C@H]1CCc3cc(O)c(O)cc3[C@H]21.Cl", "note": "(relative stereo) [Compound 6c, Trans-3-methyl-10,11-dihydroxy-5,6,6a,7,8,12b-hexahydrobenzo[a]phenanthridine hydrochloride]", "values": [{"measurement": "D1 potency and efficacy", "setting": "dopamine D1 receptor", "value": "comparable to dihydrexidine"}, {"measurement": "melting point", "value": "190 °C (dec.)"}, {"measurement": "D2 potency", "setting": "D2 receptor", "value": "greater D2 potency"}, {"measurement": "Ki", "setting": "D1 receptors", "value": 7, "unit": "nM"}, {"measurement": "D1:D2 Selectivity", "setting": "D1 receptors", "value": 6}]}, {"molecule": "Oc1ccc2c(c1O)Cc1cccc3c1C2CNC3", "note": "(centres unmarked) (as salt: hydrobromid) [Compound 29, 8,9-Dihydroxy-2,3,7,11b-tetrahydro-1H-napth[1,2,3-de]isoquinoline]", "values": [{"measurement": "melting point", "value": "258 °C (dec.)"}]}, {"molecule": "Cc1ccc2c(c1)[C@H]1c3cc(O)c(O)cc3CC[C@@H]1NC2.Cl", "note": "(relative stereo) [Compound 6b, Trans-2-methyl-10,11-dihydroxy-5,6,6a,7,8,12b-hexahydrobenzo [a]phenanthridine hydrochloride]", "values": [{"measurement": "D1 potency and efficacy", "setting": "dopamine D1 receptor", "value": "comparable to dihydrexidine"}, {"measurement": "melting point", "value": "190 °C (dec.)"}]}]}
